According to article PMC11844072, “Novel 5,6-dichlorobenzimidazole derivatives as dual BRAFWT and BRAFV600E inhibitors: design, synthesis, anti-cancer activity and molecular dynamics simulations” (BMC Chemistry, 2025):

How the values were obtained:
Assay in all cases: NCI 60 single concentration growth inhibition
Type in all cases: cell-based, human
[1] = tested on: HL-60(TB); conditions: Homo sapiens, Leukemia, read-out: GI%
Summary of the method: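 Cells are plated and left 24 h, and a time-zero plate is fixed at drug addition. Compound is then added for 48 h, the cells are fixed in cold TCA and stained with 0.4% SRB, and bound dye is solubilised in 10 mM Tris for reading at 515 nm.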

[2] = tested on: CCRF-CEM; conditions: Homo sapiens, Leukemia, read-out: GI%
Summary of the method: (§1)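 For the single-dose testing, a 10 µM concentration was applied for 48 h. Adherent lines were fixed with cold TCA, stained with SRB and read at 515 nm, and the result was reported as percent growth versus untreated cells.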

[3] = tested on: MCF7; conditions: Homo sapiens, MCF7, Breast cancer, read-out: GI%
Summary of the method: as §1

[4] = tested on: OVCAR-5; conditions: Homo sapiens, OVCAR-5, Ovarian cancer, read-out: GI%
Summary of the method: as §1

[5] = tested on: MDA-MB-231/ATCC; conditions: Homo sapiens, Breast cancer, read-out: GI%
Summary of the method: as §1

[6] = tested on: HOP-62; conditions: Homo sapiens, HOP-62, Non-small cell lung cancer, read-out: GI%
Summary of the method: as §1

[7] = tested on: UACC-62; conditions: Homo sapiens, UACC-62, Melanoma, read-out: GI%
Summary of the method: as §1

[8] = tested on: SN12C; conditions: Homo sapiens, Renal cancer, read-out: GI%
Summary of the method: as §1

[9] = tested on: HCT-116; conditions: Homo sapiens, HCT-116, Colon cancer, read-out: GI%
Summary of the method: as §1

[10] = tested on: EKVX; conditions: Homo sapiens, Non-small cell lung cancer, read-out: GI%
Summary of the method: as §1

[11] = tested on: UACC-257; conditions: Homo sapiens, UACC-257, Melanoma, read-out: GI%
Summary of the method: as §1

[12] = tested on: T-47D; conditions: Homo sapiens, T47D, Breast cancer, read-out: GI%
Summary of the method: as §1

[13] = tested on: SK-MEL-28; conditions: Homo sapiens, SK-MEL-28, Melanoma, read-out: GI%
Summary of the method: as §1

[14] = tested on: A498; conditions: Homo sapiens, A498, Renal cancer, read-out: GI%
Summary of the method: as §1

[15] = tested on: NCI-H23; conditions: Homo sapiens, NCI-H23, Non-small cell lung cancer, read-out: GI%
Summary of the method: as §1

[16] = tested on: OVCAR-8; conditions: Homo sapiens, OVCAR-8, Ovarian cancer, read-out: GI%
Summary of the method: as §1

[17] = tested on: SF-539; conditions: Homo sapiens, SF-539, CNS cancer, read-out: GI%
Summary of the method: as §1

[18] = tested on: ACHN; conditions: Homo sapiens, Renal cancer, read-out: GI%
Summary of the method: as §1

[19] = tested on: CAKI-1; conditions: Homo sapiens, CAKI-1, Renal cancer, read-out: GI%
Summary of the method: as §1

[20] = tested on: HS 578T; conditions: Homo sapiens, Breast cancer, read-out: GI%
Summary of the method: as §1

[21] = tested on: 786-0; conditions: Homo sapiens, 786-0, Renal cancer, read-out: GI%
Summary of the method: as §1

[22] = tested on: BT-549; conditions: Homo sapiens, BT-549, Breast cancer, read-out: GI%
Summary of the method: as §1

COC(=O)COc1cccc(C=NNC(=O)Cn2c(-c3ccc(OC)cc3)nc3cc(Cl)c(Cl)cc32)c1 [Compound 10g, Methyl-2-(3-((2-(2-(5,6-dichloro-2-(4-methoxyphenyl)-1H-benzo[d]imidazol-1-yl)acetyl)hydrazono)methyl)phenoxy)acetate]
inhibition at 10 µM [1]: < 5% | inhibition at 10 µM [2]: 20.9% | inhibition at 10 µM [3]: 31.9% | inhibition at 10 µM [4]: < 5% | inhibition at 10 µM [5]: 21.6% | inhibition at 10 µM [6]: < 5% | inhibition at 10 µM [7]: < 5% | inhibition at 10 µM [8]: 40.7% | inhibition at 10 µM [9]: 10.6% | inhibition at 10 µM [10]: 13.2% | inhibition at 10 µM [11]: < 5% | inhibition at 10 µM [12]: 55.9% | inhibition at 10 µM [13]: < 5% | inhibition at 10 µM [14]: < 5% | inhibition at 10 µM [15]: < 5% | inhibition at 10 µM [16]: 84.2% | inhibition at 10 µM [17]: 26.5% | inhibition at 10 µM [18]: < 5% | inhibition at 10 µM [19]: 10.5% | inhibition at 10 µM [20]: 13.9% | inhibition at 10 µM [21]: 10% | inhibition at 10 µM [22]: < 5%
